# Laboratory results as given in US12180193B2, “Accelerating fibrosarcoma protein degrading compounds and associated methods of use” (Arvinas Operations, Inc., priority 2020, dated 2024).
# What was measured:
# BRAF V600E = target: T1, BRAF V600E (Homo sapiens, UniProt P15056, V600E); assay: Cellular assay of target protein degradation, T-Rex 293 cells stably transfected with HA-BRAF_V600E (HA immunofluorescence, high content imaging); type: cell-based; details: T-Rex 293 HA-BRAF V600E; for DC50: half maximal degradation, read-out: BRaf V600E DC50; for Dmax: maximum degradation observed
# T1 construct: expressed in transfected cells
# T1 sequence (P15056 whole entry V600E): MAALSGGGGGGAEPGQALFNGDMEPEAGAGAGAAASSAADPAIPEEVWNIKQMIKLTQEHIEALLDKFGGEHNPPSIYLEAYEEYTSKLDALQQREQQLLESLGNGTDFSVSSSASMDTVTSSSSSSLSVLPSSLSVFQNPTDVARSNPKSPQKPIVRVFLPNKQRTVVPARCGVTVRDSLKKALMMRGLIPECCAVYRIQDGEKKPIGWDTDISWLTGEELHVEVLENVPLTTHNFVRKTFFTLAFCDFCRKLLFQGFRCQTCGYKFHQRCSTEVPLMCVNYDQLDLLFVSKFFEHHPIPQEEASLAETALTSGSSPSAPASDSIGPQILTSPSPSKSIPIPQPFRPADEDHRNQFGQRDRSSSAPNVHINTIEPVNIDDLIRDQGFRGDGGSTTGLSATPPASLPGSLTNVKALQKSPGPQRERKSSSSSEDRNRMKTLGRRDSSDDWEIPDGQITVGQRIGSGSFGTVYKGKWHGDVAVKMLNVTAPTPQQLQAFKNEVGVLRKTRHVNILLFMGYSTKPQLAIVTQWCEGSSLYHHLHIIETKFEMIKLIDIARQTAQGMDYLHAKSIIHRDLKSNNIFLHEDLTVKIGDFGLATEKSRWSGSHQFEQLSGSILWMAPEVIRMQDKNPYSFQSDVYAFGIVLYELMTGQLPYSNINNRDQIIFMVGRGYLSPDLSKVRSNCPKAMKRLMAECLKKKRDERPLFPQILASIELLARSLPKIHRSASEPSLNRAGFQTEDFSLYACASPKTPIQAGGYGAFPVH
# In short: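 Degradation of the HA-tagged construct is measured after 24 h treatment at 37 °C across 1 μM to 0.1 nM in 0.1% DMSO, in doxycycline-induced (1 ng/mL) cells. DC50 and Dmax come from HA fluorescence imaging.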
# BRAF G466V = target: T2, BRAF G466V (Homo sapiens, UniProt P15056, G466V); assay: Cellular assay of target protein degradation, T-Rex 293 cells stably transfected with HA-BRAF G466V (HA immunofluorescence, high content imaging); type: cell-based; details: T-Rex 293 HA-BRAF G466V; for DC50: half maximal degradation, read-out: BRaf G466V DC50; for Dmax: maximum degradation observed
# T2 construct: expressed in transfected cells
# T2 sequence (P15056 whole entry G466V): as the sequence (P15056 whole entry V600E) above, with G466V, E600V counted along it
# In short: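 Dose range spans 30 nM to 3 pM (0.1% DMSO) over 24 hours at 37° C, in cells induced with 0.75 ng/mL doxycycline. Fixed cells are probed with anti-HA antibody overnight at 4° C, then imaged; half-maximal degradation and maximum degradation are derived.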
Structure (SMILES),DC50 (BRAF V600E),Dmax (BRAF V600E),DC50 (BRAF G466V),Dmax (BRAF G466V)
"O=C1CC[C@H](NC(=O)c2ccc(N3CCN(CC4CCN(c5ccc(-c6cnc7[nH]cc(C(=O)c8c(F)ccc(NS(=O)(=O)N9CC[C@@H](F)C9)c8F)c7c6)cc5)CC4)CC3)cc2F)C(=O)N1 [Compound 341, 4-(4-{[1-(4-{3-[2,6-difluoro-3-({[(3R)-3-fluoropyrrolidin-1-yl]sulfonyl}amino)benzoyl]-1H-pyrrolo[2,3-b]pyridin-5-yl}phenyl)piperidin-1-yl]methyl}piperazin-1-yl)-N-[(3S)-2,6-dioxopiperidin-3-yl]-2-fluorobenzamide]",5 to 50 nM,35 to 70%,1 to 10 nM,> 70%
"O=C1CCC(N2Cc3cc(C4CCN(CC5CCN(c6ccc(-c7cnc8[nH]cc(C(=O)c9c(F)ccc(NS(=O)(=O)N%10CCCC%10)c9F)c8c7)cc6)CC5)CC4)ccc3C2=O)C(=O)N1 (stereo not drawn) [Compound 177, N-[3-(5-{4-[4-({4-[2-(2,6-dioxopiperidin-3-yl)-1-oxo-2,3-dihydro-1H-isoindol-5-yl]piperidin-1-yl}methyl)piperidin-1-yl]phenyl}-1H-pyrrolo[2,3-b]pyridine-3-carbonyl)-2,4-difluorophenyl]pyrrolidine-1-sulfonamide]",< 5 nM,35 to 70%,< 1 nM,> 70%
"CNc1cc(-c2cnc3[nH]cc(C(=O)c4c(F)ccc(NS(=O)(=O)N5CC[C@@H](F)C5)c4F)c3c2)ccc1N1CCC(CN2CCC(c3ccc4c(c3)CN([C@H]3CCC(=O)NC3=O)C4=O)CC2)CC1 [Compound 210, (3R)—N-{3-[5-(4-{4-[(4-{2-[(3S)-2,6-dioxopiperidin-3-yl]-1-oxo-2,3-dihydro-1H-isoindol-5-yl}piperidin-1-yl)methyl]piperidin-1-yl}-3-(methylamino)phenyl)-1H-pyrrolo[2,3-b]pyridine-3-carbonyl]-2,4-difluorophenyl}-3-fluoropyrrolidine-1-sulfonamide]",5 to 50 nM,35 to 70%,1 to 10 nM,> 70%
"O=C1CC[C@H](N2Cc3cc([C@H](O)CCN4CC5(C4)CN(c4ccc(-c6cnc7[nH]cc(C(=O)c8c(F)ccc(NS(=O)(=O)N9CC[C@@H](F)C9)c8F)c7c6)cc4)C5)ccc3C2=O)C(=O)N1 [Compound 105, (3R)—N-[3-[5-[4-[6-[(3R)-3-[2-[(3S)-2,6-dioxo-3-piperidyl]-1-oxo-isoindolin-5-yl]-3-hydroxy-propyl]-2,6-diazaspiro[3.3]heptan-2-yl]phenyl]-1H-pyrrolo[2,3-b]pyridine-3-carbonyl]-2,4-difluoro-phenyl]-3-fluoro-pyrrolidine-1-sulfonamide]",5 to 50 nM,35 to 70%,1 to 10 nM,35 to 70%

# Further lines, results first:
DC50 (BRAF V600E),Dmax (BRAF V600E),DC50 (BRAF G466V),Dmax (BRAF G466V),Structure (SMILES)
5 to 50 nM,35 to 70%,1 to 10 nM,> 70%,"O=C1CC[C@H](N2Cc3cc(N4CCN(CC5CCN(c6ccc(-c7cnc8[nH]cc(C(=O)c9c(F)ccc(NS(=O)(=O)N%10CC[C@@H](F)C%10)c9F)c8c7)cc6)CC5)CC4)ccc3C2=O)C(=O)N1 [Compound 219, (3R)-N-{3-[5-(4-{4-[(4-{2-[(3S)-2,6-dioxopiperidin-3-yl]-1-oxo-2,3-dihydro-1H-isoindol-5-yl}piperazin-1-yl)methyl]piperidin-1-yl}phenyl)-1H-pyrrolo [2,3-b]pyridine-3-carbonyl]-2,4-difluorophenyl}-3-fluoropyrrolidine-1-sulfonamide]"
5 to 50 nM,35 to 70%,1 to 10 nM,> 70%,"CCCS(=O)(=O)Nc1ccc(F)c(C(=O)c2c[nH]c3ncc(-c4ccc(N5CCC(CN6CCC(c7ccc8c(c7)CN([C@@H]7CCC(=O)NC7=O)C8=O)CC6)CC5)cc4)cc23)c1F [Compound 235, N-{3-[5-(4-{4-[(4-{2-[(3R)-2,6-dioxopiperidin-3-yl]-1-oxo-2,3-dihydro-1H-isoindol-5-yl}piperidin-1-yl)methyl]piperidin-1-yl}phenyl)-1H-pyrrolo[2,3-b]pyridine-3-carbonyl]-2,4-difluorophenyl}propane-1-sulfonamide]"
